pIC50: −log10 of the molar value. Values joined by “and” are separate entries in the source; they are usually repeats but may differ in a detail not shown here. Identical values can stand only once.
Legend:
[1] = DPPH radical assay
Procedure: The DPPH assay was one of three electron transfer (ET) assays used to determine the antioxidant potential of compound 1 (described in Example 6) in comparison to its monomeric counterpart (syringaldehyde) as well as popular antioxidants. In an ET assay, an antioxidant donates electron(s) to a molecular probe, thus reducing it. From the assay, thermodynamic conversion of antioxidant to antioxidant radical (oxidation) is measured during a fixed time period.
The reduction of DPPH radical was determined for ascorbic acid, Trolox, syringaldehyde, and the compound 1 described in Example 6 as previously reported (Brand-Williams, et al. Lebensm.-Wiss U.-Technol. 1995, 28, 25-30, incorporated herein by reference in its entirety). In the DPPH assay, DPPH• radical was reduced by the antioxidant in methanol (Brand-Williams, et al. Lebensm.-Wiss U.-Technol. 1995, 28, 25-30, incorporated herein by reference in its entirety). […] The DPPH reagent was made in methanol. Antioxidant sample (10 μL) was added to 1.0 mL of reagent and the absorbance was monitored at 515 nm until a plateau was reached. Antioxidant concentrations were 50 μM syringaldehyde, 12.5 μM Trolox and ascorbic acid, and 5 μM compound 1. All samples were made in methanol and run in triplicates at room temperature.
The DPPH• scavenging capacity of each antioxidant was evaluated from the plot of the percentage DPPH• remaining when the kinetics reached a steady state as a function of the molar ratios of antioxidant to DPPH•. […] Using the curve, EC50 (the amount of antioxidant necessary to decrease the initial DPPH• concentration by 50%), antiradical power (1/EC50, ability to reduce the DPPH•), reaction stoichiometry (EC50×2, the concentration of antioxidant required to reduce 100% of DPPH• radical), and the number of reduced DPPH• per antioxidant molecule (1/stoichiometry) for each antioxidant were calculated as previously described (Brand-Williams, et al. Lebensm.-Wiss U.-Technol. 1995, 28, 25-30, incorporated herein by reference in its entirety) and are depicted in Table 1.
Antioxidant capacity of the compounds was assessed by the DPPH assay (Brand-Williams, et al. Lebensm. Wiss. Technol. 1995, 28, 25, incorporated herein by reference in its entirety). […] In FIG. 22, control with methanol is (X, dashed); compound 1 is (□), compound 2 is (•), compound 3 is (◯), and Trolox (Δ). All antioxidant concentrations were 5 μM.
The free-radical scavenging ability of the antioxidants was evaluated by the DPPH assay, as described above in Example 7.

[2] = FRAP assay (reduction of Fe(III) to Fe(II)); type: biochemical; parameters: Slope of ΔA593 versus concentration: unit not given here; details: for Slope of ΔA593 versus concentration: 37° C.
Procedure: The FRAP assay was performed as previously described (Pulido, et al. J. Agric. Food Chem. 2000, 48, 3396-3402, incorporated herein by reference in its entirety). In the FRAP assay, ferric was reduced by the antioxidant to ferrous via electron transfer (Benzie et al., Anal. Biochem. 1996, 239, 70-76, incorporated herein by reference in its entirety). This assay measured the redox potential of an antioxidant which is used as an estimate of antioxidant efficiency and expressed as a FRAP value. […] The compound 1 as well as the other antioxidants was dissolved in methanol. […] Reaction kinetics of the compound 1 and other antioxidants were obtained by plotting the change in slopes at various times and are shown in FIG. 18. […] This time-dependent increase in absorbance was previously reported (Pulido, et al. J. Agric. Food Chem. 2000, 48, 3396-3402, incorporated herein by reference in its entirety) and was especially significant with polyphenolic compounds. […] However, the FRAP value increased with time, reaching 2.5 in 60 min. […] J. Agric. Food Chem. 2000, 48, 3396-3402, incorporated herein by reference in its entirety). […] EC1 values, and therefore ferric reducing ability, were lower at longer reaction times as expected from the kinetic behavior of the antioxidants (Pulido, et al. J. Agric. Food Chem. 2000, 48, 3396-3402, incorporated herein by reference in its entirety).

[3] = beta-carotene-linoleate assay; type: biochemical; details: for % A470 nm: 12 μM, after 180 min incubation at 50° C.; for protection of linoleic acid from oxidation: 50° C., 180 min, 470 nm
Description: The ability of the dendritic antioxidants 1, 2, and 3 to protect linoleic acid against free radical damage was examined by the beta-carotene-linoleate model (Jayaprakasha, G. K., et al. Food Chem. 2001, 73, 285, incorporated herein by reference in its entirety). In the absence of an antioxidant, hydroperoxides formed from linoleic acid oxidation bleach the highly unsaturated beta-carotene by a free-radical-mediated phenomenon. The bleaching of the reddish-orange color of beta-carotene was monitored at 470 nm in the presence of various concentrations of antioxidant. The % absorbance (corrected for control without antioxidant) was determined at each antioxidant concentration after incubation at 50° C. for 180 min. The % A470 nm values were determined as follows: % A470 nm=[(At(180 min)/At(0 min))×100]−[(Ac(180 min)/Ac(0 min))×100], wherein At(180 min)=absorbance at 470 nm of antioxidant sample incubated at 50° C. for 180 min, At(0 min)=absorbance at 470 nm of antioxidant sample incubated at 50° C. for 0 min, Ac(180 min)=absorbance at 470 nm of control sample (without antioxidant) incubated at 50° C. for 180 min, and Ac(0 min)=absorbance at 470 nm of control sample (without antioxidant) incubated at 50° C. for 0 min. […] In FIG. 24, protection of linoleic acid from oxidation by various antioxidants is shown for compound 1 (□), compounds 2 and 3 (•), quercetin (x), and Trolox (Δ).

[4] = ABTS radical cation decolorization assay; type: biochemical
Description: We have tested AO activity of G1 (13) using ABTS as a radical source using a previously reported spectroscopic assay. The AO activity of the G1 (13) was compared to those of syringaldehyde, gallic acid, and vitamin C. If the phenolic OH group is the radical scavenging site, the expected AO activity of the G1 (13) should be 4 fold higher than that of syringaldehyde and 1.3 fold higher than that of gallic acid (which has three phenolic OH groups).
ABTS radical cation decolorization assay was used as previously described (Ozgen, et al. J. Agric. Food Chem. 2006, 54, 1151-1157, incorporated herein by reference in its entirety). Like the DPPH assay, this was also a decolorization assay and measured absorbance decrease at 734 nm as the ABTS radical (ABTS•+) is quenched by the antioxidant. The solvent used for the assay was ethanol. ABTS reagent was added to 1.0 mL solvent in a cuvet to bring the absorbance to 0.7. A 10 μL sample of antioxidant was then added, mixed, and the absorbance monitored at 734 nm for 6 min. Antioxidant concentrations were 14.4 μM Trolox, 11.4 μM ascorbic acid, 15.4 μM syringaldehyde, and 3 μM compound 1. The % decrease in absorbance at 6 min was plotted against antioxidant concentrations. The gradient of the line obtained by linear regression for a given antioxidant was divided by that obtained for Trolox to yield Trolox equivalent antioxidant (TEAC) values. All samples were made in ethanol and run in triplicates and at room temperature.

[5] = system: plasmid DNA pBR 322; assay: Protection of plasmid DNA from AAPH damage (agarose electrophoresis); type: biochemical; details: 10 mM AAPH, 37° C., 4 h
Procedure: The effectiveness of the three compounds to protect DNA from AAPH damage was also determined. The plasmid DNA pBR 322 was incubated with AAPH (final concentration 10 mM) at 37° C. for 4 h with or without antioxidants (final concentrations, 0.35-45 μM), after which the samples were subjected to agarose electrophoresis (Sakihama, Y., et al. Toxicology 2002, 177, 67, incorporated herein by reference in its entirety). […] In the absence of AAPH, pBR 322 was mostly in its supercoiled (S) form (small amount of open circular, O, form was also visible, lane 1 FIG. 25). After reaction with AAPH, the DNA was transformed almost entirely into its open circular form (lane 2, FIG. 25). […] No protection was obtained for both compound 1 and quercetin below 5 μM (lanes 7-10, FIG. 25). […] Compound 3 as well as Trolox were ineffective at all concentrations used in the experiment (0.35-45 μM).
Protection of DNA from free radical damage by the antioxidant dendrimers (compounds 4, 5, and 1) was also evaluated. Plasmid DNA (pBR 322) samples, were incubated with AAPH (final concentration 10 mM) at 37° C. for 4 h with antioxidants (final concentrations, 0.35-45 μM) and subjected to agarose electrophoresis. […] The native DNA was mostly in its supercoiled (S) form (small amount of open circular, O, form was also visible, lane 1, FIG. 31). In the presence of AAPH, the DNA was transformed almost entirely into its O form (lane 2, FIG. 31). […] Negligible DNA protection was afforded by all three dendrimers at ≦2.5 μM (lanes 7-10, FIG. 31). Under similar conditions, Trolox as well as the starting materials for dendrimer synthesis were ineffective at all concentrations.

[6] = system: Human LDL; assay: Protection of LDL from AAPH oxidation (agarose gel electrophoresis); type: biochemical; details: 10 mM AAPH, 18 h, 37° C.
Description: The antioxidant activity of compounds 1, 2, and 3 towards biomolecules was examined by studying their ability to protect LDL, fatty acid, and DNA from free radicals. For LDL, AAPH was used to induce free radical damage. AAPH was used instead of copper (Cu^2) ion for LDL oxidation so that the free radical scavenging activity of the antioxidants could be measured without any pro-oxidant interference caused by metal ions (Salah, N. et al. Arch. Biochem. Biophys. 1995, 322, 339, incorporated herein by reference in its entirety). All solutions were made in ultra-pure water.
Protection of LDL from AAPH free radicals by the antioxidant decreased the anodic shift in a dose-dependent manner (FIG. 23). […] The increased hydrophobicity of compound 3 may be partly responsible for its improved LDL protection over compound 2.
The antioxidant activity of the antioxidants towards biomolecules was examined by studying their ability to protect LDL, lysozyme, and DNA from free radicals. For LDL, AAPH was used to induce free radical damage. AAPH was used instead of Cu^2+ for LDL oxidation so that the free radical scavenging activity of the antioxidants could be measured without any pro-oxidant interference caused by metal ions. The oxidation of human low-density lipoprotein was used as a model for evaluating the ability of the G1 dendrimers as chain-breaking antioxidants for lipid. Oxidation of LDL leads to changes in both the lipid and the protein moieties of the lipoprotein particle. Lipid peroxidation in LDL has been evaluated by a variety of methods. Due to the complexity of events that occur in lipoprotein oxidation, the electrophoretic migration pattern of oxidized LDL is one of the best methods to evaluate the extent of lipoprotein oxidation. LDL was incubated with 20 mM AAPH and increasing concentrations of the G1 dendrimers (0-37 μM in PBS) for 21 h at 37° C. The mixture was then subjected to agarose gel electrophoresis using the Ciba Corning Clinical Electrophoresis System. The agarose gel was stained with Fat Red 7B. In FIG. 30A (top), lane 1 is native LDL, and lanes 2-8 are AAPH-oxidized LDL with 0, 37, 18.5, 9, 4.5, 2 and 1 μM compound 4, respectively. In FIG. 30B (bottom), lane 1 is native LDL, and lanes 2-8 are AAPH-oxidized LDL with 0, 37, 18.5, 9, 4.5, 2 and 1 μM quercetin or Trolox, respectively.

SMILES: COc1cc(C=O)cc(OC)c1O [Syringaldehyde]
- # of DDPH• reduced per antioxidant molecule (1/stoichiometry) [1]: 0.33
- Antioxidant Capacity Relative to Trolox, DPPH [1]: 0.18
- DPPH assay, times weaker than Trolox [1]: 5.6 times
- DPPH• remaining in one minute ([1]; 50 μM syringaldehyde): 96%
- time to reach plateau / steady state with DPPH• ([1]; 50 μM syringaldehyde, 12.5 μM Trolox and ascorbic acid, 5 μM compound 1, methanol, room temperature, 515 nm): approximately 45 min
- Antioxidant Capacity Relative to Trolox, FRAP 5 min ([2]; 5 min): 2.3
- EC1 (concentration with ferric-TPTZ reducing ability equivalent to 1 mM FeSO4.7H2O) ([2]; 5 min): 194 µM
- FRAP value relative to Fe(II) ([2]; 5 min): 5.1
- FRAP value relative to Fe(II) ([2]; 15 min): 6.7
- FRAP value relative to Fe(II) ([2]; 30 min): 8.4
- Antioxidant Capacity Relative to Trolox, FRAP 60 min ([2]; 60 min): 4 and 4.2
- EC1 (concentration with ferric-TPTZ reducing ability equivalent to 1 mM FeSO4.7H2O) ([2]; 60 min): 108 µM
- FRAP value relative to Fe(II) ([2]; 60 min): 9.2
- Slope of ΔA593 versus concentration ([2]; Reaction time 5 min): 0.062
- Slope of ΔA593 versus concentration ([2]; Reaction time 15 min): 0.081
- Slope of ΔA593 versus concentration ([2]; Reaction time 30 min): 0.101
- Slope of ΔA593 versus concentration ([2]; Reaction time 60 min): 0.111
- % A470 nm [3]: 12%
- Antioxidant Capacity Relative to Trolox, ABTS [4]: 0.98
- pIC50 ([4]; final concentration in the cuvet, read-out: concentration at which 50% inhibition of ABTS•+ was observed): ~4.96
- Slope of % decrease in absorbance at 6 min versus antioxidant concentration ([4]; linear regression, concentration in μM): 3.9
- TEAC ([4]; slope divided by that of Trolox, % decrease in A734 at 6 min, ethanol): 0.98

SMILES: COc1cc(CN(Cc2ccc(CN(Cc3ccc(O)c(OC)c3)Cc3ccc(O)c(OC)c3)cc2)Cc2ccc(O)c(OC)c2)ccc1O [Compound 2]
- concentration at which some DNA protection was observed [5]: ≥ 45 µM
- protection of linoleic acid from oxidation [3]: about twice weaker than compound 1

SMILES: COc1cc(CN(Cc2ccc(CN(Cc3cc(I)c(O)c(OC)c3)Cc3cc(I)c(O)c(OC)c3)cc2)Cc2cc(I)c(O)c(OC)c2)cc(I)c1O [Compound 3]
- protection of LDL from AAPH free radicals (anodic migration) [6]: better LDL protection than compound 2
- DNA protection at all concentrations used ([5]; 0.35-45 μM): ineffective
- protection of linoleic acid from oxidation [3]: about twice weaker than compound 1

SMILES: NCc1ccc(CN)cc1 [4-aminomethylbenzylamine]
- quenching of DDPH• ([1]; 40 μM final concentration in cuvet): 6%
- % A470 nm [3]: 16%
